Assays:
[1] = test system: heat nociceptive stimulation; assay: Anti-nociceptive activity test, tail-flick method; format: in vivo, mouse
Procedure: (1) Experimental animal, male ddy mice (Japan SLC), weighing the body weight in the range of 22 to 25 g, were used for the studies. The animals had been kept under constant conditions (room temperature 22±2° C., humidity 55±5%, 12 hours light-and-dark cycle having light time 9:00 to 21:00 and dark time 21:00 to 9:00) until used for an experiment. The animals were fed the mouse solid diet (F2, Funabashi farm. Funabashi, Japan) with unrestricted tap water intake.
SS8225-01, 02, 03 04, 05, 06, 07 and 08 as examples and SS8225-09, 10, 11 and 12 as comparison examples were used as the administered drugs. […] In addition only Liger solution was administered as an experimental control. The animals were left for 60 minutes in the plastic cage to become familiar to the environment prior to the test in which measured a latent time for each mouse before drug administration in accordance with a tail-flick method noted below. Heat was radiated to a part of each mouse tail which is 2 cm from the end of its tail. Each of heat radiation periods before beginning of tail-flick was measured as a false pain threshold. Mice which responded to the stimulation within 2.5 to 3.5 seconds were pre-selected for the test. Administration solution under one administration condition for one kind of drug was administered to one experimental animal group including 10 mice. After the body weight of each mouse was measured, each volume of the administration solution was adjusted to be 0.1 mL/10 g of mouse body weight and then the solution was administered. The administration methods were two methods of subcutaneous administration (s. c.) and oral administration (p. o.). On subcutaneous administration, the administration solution of 0.1 mL per 10 g of body weight (0.1 mL/10 g) was injected into the back of the mouse using 27 gauge needle. On oral administration, the administration solution of 0.1 mL per 10 g of body weight (0.1 mL/10 g) was administered using an oral sonde.
Heat was radiated to a part of each mouse's tail of respective experimental group, which is 2 cm from the end of its tail, at 15, 30 and 60 minutes after the drug administration according to the preset measurement interval and a latent time until respective mouse swung its tail was measured as a false pain threshold value. The maximum stimulation period (cut-off-time) was set as 10 seconds to minimize the damage to the stimulation part. The anti-nociceptive effect was evaluated quantitatively by calculating % MPE (% of maximum possible effect) according to the following formula. [formula] T1: A latent time until beginning of tail-flick before respective drug administration (seconds) T2: A latent time until beginning of tail-flick after respective drug administration (seconds) Tc: A maximum stimulation period (cut-off-time)
The graphs (FIG. 1, FIG. 3, FIG. 5, FIG. 7, FIG. 9, FIG. 11, FIG. 13, FIG. 15, FIG. 17, FIG. 19, FIG. 21, FIG. 23, FIG. 25, FIG. 27, FIG. 29, FIG. 31, FIG. 33 and FIG. 35) showing a time-course variation of % MPE were created, in which a vertical axis is an average value with a standard error (means ±S. E. M.) obtained by calculation of % MPE of respective animals of 10 mice every administration condition of respective drugs and a horizontal axis is a time after administration. After treating % MPE data of each animal of experimental groups with respective doses and % MPE data of each animal of the experimental group with a control Ringer's solution at the same measurement time every drugs using the two-way layout dispersion analysis (two-way ANOVA), the hazard-ratio of P<0.05 was decided to be a significant difference according to Bonferroni post-test.
A lasting time of anti-nociceptive activity of each drug in the present description is the lasting time of anti-nociceptive activity under the dose condition providing the longest lasting time.
ED50 is represented in the unit of mg/Kg.

[2] = test system: nerve damage model animal; assay: Allodynia experiment, nerve damage model (partial sciatic nerve ligation), Von Frey filament method; format: in vivo, mouse; conditions: for anti-allodynia effect in animals with ligated sciatic nerve: s.c. administration, Von Frey filament
Procedure: Further the anti-nociceptive activity test using a nerve damage model envisioning a neuropathic pain was performed.
Preparation of the Nerve-Damage Model was Conducted According to the model created by Seltzer (partial sciatic nerve ligation: RSL model).
Specifically the amount of 0.1 mL/10 g of Nembutal solution 7 times diluted with Ringer's solution (Fuso Pharmaceutical Kogyo) was injected into the peritoneal cavity of mouse using 26 gauge needle (Termo) to give anesthetic. The animal was lain on its stomach, its femoral skin was cut open to incise through the fascia, the part between the heads of the biceps femoris was cut and then its sciatic nerve was fixed. The ⅓ to ½ part of the […] around the sciatic nerve detached without damaging was completely ligated with a nylon suture thread No. 9 (Natsume Seisakusho) using a vascular needle 000 spring hole (Natsume Seisakusho). Further the cut skin was sutured with the silk thread No. 2 (Natsume Seisakusho) using a surgical needle 1 spring needle (Natsume Seisakusho). After the operation, the mice had been kept until the testing date under the above conditions.
The measurement of allodynia effect on the nerve-damage model animals was conducted according to the Von Frey filament method 7 days after the nerve ligation.
Then a few kinds of filaments having different strength of stimulus (Touch-test Sensory Evaluator Instruction North Coast Medical Inc.) were pushed perpendicularly on the sole of the hinder leg until the filament was bent.
Further, for comparison, the left lower leg of the animal without nerve-damage was also stimulated and the threshold values were measured. AUCs (the area surrounded with the time-reaction curve and the base line of a graph showing the relationship between the time after administration (time-course) and % MPE) were calculated from the obtained results. Antiallodynia activity obtained from the AUC divided by the measuring time was compared as strength of activity per unit of the time period.

[3] = mice, p.o., at activity-peak time, parentheses = 95% confidence limit
[4] = mice, s.c., at activity-peak time, parentheses = 95% confidence limit

Row | Compound | dosage providing the same AUC, as part of morphine dosage ([1]; AUC of %MPE vs time, either oral or subcutaneous administration (FIG. 37, 38)) | activity-peak time after the oral administration ([1]; mice, p.o.) [min] | Oral ED50 [1, 3] | activity-peak time after the subcutaneous administration ([1]; mice, s.c.) [min] | Subcutaneous ED50 [1, 4] [mg/kg] | lasting time of anti-nociceptive activity ([1]; p.o., dose of 10 mg/Kg) [h] | lasting time of anti-nociceptive activity ([1]; s.c., dose of 0.125 mg/Kg) [h] | lasting period of anti-nociceptive activity compared with morphine ([2]; nerve damage model, s.c., at dose of equal activity) | anti-allodynia effect in animals with ligated sciatic nerve [2] | ED50 ([1]; Mus musculus, po, mice, p.o., at activity-peak time, parentheses = 95% confidence limit, read-out: Oral ED50) [mg/kg] | lasting time of anti-nociceptive activity ([1]; p.o., dose of 67.5 mg/Kg) [h] | lasting time of anti-nociceptive activity ([1]; s.c., dose of 5 mg/Kg) [h]
1 | Iminoethyl-[Tyr]-[D-Met(O)]-[Phe]-[N-MeβAla]-NHCH3 [SS8225-07] | a half through one fiftieth | 180 | 2.51 mg/kg | 60 | 0.05 | 8 | 5 | about twice longer | decrease of anti-allodynia effect was not observed at any doses |  |  | 
2 | CN1CC[C@]23c4c5ccc(O)c4O[C@H]2[C@@H](O)C=C[C@H]3[C@H]1C5 [Morphine] |  | 45 | 29.9 (26.37-33.95) mg/Kg | 30 | 2.51 |  |  |  | significantly decreased | 29.9 | 5 | 1.5

From US20080009448A1, “Peptide Derivative” (priority 2006, published 2008)
